What was measured:
IgG Fc = experiment: Competition between reactive peptide (F1) and non-reactive peptide; assay type: biochemical, human; settings: non-reactive peptide added to the reaction of F1 and IgG
Procedure: (FIG. 3A) The structures of peptides used in this work. FITC moiety was added at the N-termini of the peptides to MST analysis.

[1] = system: PD-L1 positive (PC12) cells; experiment: Immunofluorescence of modified atezolizumab, confocal microscopy; assay type: cell-based; settings: 150 nM, PBS pH 7.4, 37° C., 15 min
Procedure: FIG. 5A-5B Acetylation of therapeutic antibody and immunofluorescence. (FIG. 5A) Acetylation reaction monitored by SDS-PAGE and fluorescent scanning. Reaction condition: 4 μM antibodies, 24 μM F1, PBS buffer (pH 7.4), at 37° C. for 1 h. The reactions were quenched with 1% SDS and DBCO-TAMRA was added at room temperature for 1.5 h for SPAAC reaction before SDS-PAGE and in-gel fluorescent imaging. Lane M, molecular weight marker; lane 1, M-trastuzumab; lane 2, M-cetuximab; lane 3, M-daratumumab; […], reduced results of […]. […] Incubation conditions: Cells were incubated with modified antibodies (150 nM) in PBS buffer (pH 7.4) at 37° C. for 15 min before the fixation of cells.

His-tagged human PD-L1 = target: T1, His-tagged human PD-L1 (Homo sapiens, UniProt Q9NZQ7); experiment: Pull-down assay of modified atezolizumab on PD-L1 loaded Ni-NTA resins; assay type: binding; settings: PD-L1 immobilized on Ni-NTA resins
T1 construct: purchased GenScript
T1 sequence (Q9NZQ7 19-290): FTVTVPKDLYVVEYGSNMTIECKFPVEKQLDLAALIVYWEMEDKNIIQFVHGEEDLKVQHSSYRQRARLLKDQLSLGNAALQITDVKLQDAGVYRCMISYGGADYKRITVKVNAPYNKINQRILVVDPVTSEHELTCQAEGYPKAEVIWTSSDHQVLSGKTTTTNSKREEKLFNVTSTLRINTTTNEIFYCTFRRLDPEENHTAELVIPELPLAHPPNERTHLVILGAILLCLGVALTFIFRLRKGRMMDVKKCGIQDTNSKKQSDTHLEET
Procedure: (FIG. 16A) A pull-down experiment in vitro. […] (FIG. 16B) FITC labeled PD-L1 was immobilized on Ni-NTA agarose resin through polyhistidine tag.
Ni-NTA agarose resins were resuspended and 20 μL resins were pipetted into a 1.5 mL tube. After washing with PBS-T buffer (phosphate buffered saline supplemented with 0.1% Tween-20), His-tagged human PD-L1 (200 nM) was immobilized on Ni-NTA resins in 100 μL buffer solution (20 mM imidazole, pH 7.4 PBS-T) at room temperature for 1 h with shaking. The binding solution was removed by centrifugation and the resins were washed three times with pH 7.4 PBS-T buffer. Then Atezo-TAMRA (100 nM) was incubated with the resins in 100 μL buffer solution (20 mM imidazole, pH 7.4 PBS-T) for 1 h with shaking. Next, the resins were washed three times with PBS-T and eluted by boiling the beads for 10 min in 2× sample loading buffer. The samples were analyzed by SDS-PAGE. As a negative control, same amount of polyclonal IgG was incubated with the PD-L1 loaded resins. For confocal microscopy, His-tagged human PD-L1 was firstly labelled by FITC.

Row | Compound | effect on the acetylation reaction of F1 and IgG (IgG Fc) | binding to cells (immunofluorescence) [1] | binding to PD-L1 (pull-down) (His-tagged human PD-L1) | binding to PD-L1 (pull-down) (His-tagged human PD-L1; listed as acetylated atezolizumab)
1 | CC(C)C[C@@H]1NC(=O)C(CCC(=O)O)NC(=O)CNC(=O)[C@H](CC(C)C)NC(=O)[C@H](Cc2c[nH]cn2)NC(=O)[C@H](Cc2c[nH]c3ccccc23)NC(=O)[C@H](C)NC(=O)[C@@H](NC(=O)[C@H](CC(=O)O)NC(=O)CCNC(=O)CNC(=S)Nc2ccc(-c3c4ccc(=O)cc-4oc4cc(O)ccc34)c(C(=O)O)c2)CSSC[C@@H](C(=O)N[C@H](C(N)=O)[C@@H](C)O)NC(=O)[C@H](Cc2c[nH]c3ccccc23)NC(=O)[C@H](C(C)C)NC1=O (stereo partly shown) [f-F0] | abolished the acetylation reaction |  |  | 
2 | M-Atezo: atezolizumab azidoacetylated at Lys248 of the Fc by F1 (DBCO-TAMRA tagged for detection) |  | maintained their binding with PD-L1 positive (PC12) cells | reserved the binding ability to PD-L1 | could still bind its ligand

Reference: US20240024504A1, “SITE-SELECTIVE LYSINE ACETYLATION OF HUMAN IMMUNOGLOBULIN G AND IgG-RELATED PRODUCTS FOR IMMUNOTHERAPY” (The Chinese University of Hong Kong, priority 2022, published 2024)
